Assays:
Type in all cases: in vivo, C57BL/6 mice
[1] = tested on: recombinant adenoviruses H5.010CBALP and H5.010CMVlacZ; assay: Lung-directed adenovirus gene transfer and readministration, transgene expression by histochemistry (Example 2)
Protocol: Female C57BL/6 mice (6˜8 week old) were infected with suspensions of H5.010CBALP (1×10^9 pfu in 50 μl of PBS) via the trachea at day 0 and similarly with H5.010CMVlacZ at day 28. One group of such mice was used as a control. Another group of mice were acutely depleted of CD4^+ cells by i.p. injection of antibody to CD4^+ cells (GK1.5; ATCC No. TIB207, 1:10 dilution of ascites) at the time of the initial gene therapy (days −3, 0, and +3). A third group of mice was injected with IL-12 (1 μg intratracheal or 2 μg, i.p. injections) at the time of the first administration of virus (days 0 and +1). A fourth group of mice was injected with gamma interferon. (1 μg intratracheal or 2 μg, i.p. injections) at the time of the first administration of virus (days 0 and +1).
When mice were subsequently euthanized and necropsied at days 3, 28, or 31, lung tissues were prepared for cryosections, while bronchial alveolar lavage (BAL) and mediastinal lymph nodes (MLN) were harvested for immunological assays.
The lung tissues were evaluated for ALP expression at day 3 and day 28 by histochemical staining following the procedures of Yang I, cited above. β-galactosidase expression was assayed at day 31 by X-gal histochemical staining. The results described below were obtained from the alkaline phosphatase histochemical stains (magnification ×100) or β-galactosidase X-gal stains (magnification ×100).

[2] = tested on: H5.010CBlacZ; assay: Adenovirus-specific IgG and IgA in BAL by ELISA; settings: day 28, versus control mice
Protocol: Adenovirus-specific antibody isotype was determined in BAL by using an enzyme-linked immunosorbent assay (ELISA). Briefly, 96-well plates were coated with 100 μl of PBS containing 5×10^9 particles of H5.010CBlacZ for 18 hours at 4° C. The wells were washed 5 times with PBS. After blocking with 200 μl of 2% BSA in PBS, the plates were rinsed once with PBS and incubated with 1:10 diluted BAL samples for 90 minutes at 4° C. Thereafter, the wells were extensively washed and refilled with 100 μl of 1:1000 diluted ALP-conjugated anti-mouse IgG or IgA (Sigma). The plates were incubated, subsequently washed 5 times, and 100 μl of the substrate solution (p-nitrophenyl phosphate, PNPP) was added to each well. Substrate conversion was stopped by the addition of 50 μl of 0.1M EDTA, and reactions were read at 405 nm.
The results are shown graphically in FIGS. 1A through 1C, which summarize neutralizing antibody titer, and the relative amounts (OD405) of IgG and IgA present in BAL samples.

[3] = tested on: recombinant adenoviruses H5.010CMVlacZ and H5.010CBALP; assay: Tail vein adenovirus gene transfer to mouse liver and readministration (Example 4); settings: liver, second virus day 28, read day 31
Protocol: Recombinant virus (H5.010CMVLacZ or H5.010CBALP) was inactivated with ultraviolet light in the presence of 8-methoxypsoralen. Briefly, purified virus was resuspended in 0.33 mg/ml of 8-methoxypsoralen solution and exposed to a 365 nm UV light source on ice at 4 cm from the lamp filter for 30 min. The virus was then passed over a Sephadex G-50 column equilibrated with PBS. […] Suspensions of the viruses (2×10^9 pfu in 100 μl of PBS) were infused into the tail vein of 6 to 8 week old female mice as etailed in the following experiments. Each experiment was performed with a minimum of three mice in which transgene expression was quantified in a section of each of 5 lobes. The minimum analysis was 15 sections per experimental condition.
e. C57BL/6 mice were inoculated i.p. with 0.5 ml aliquots of 1:10 dilution of mouse ascites fluid containing the GK1.5 (anti-CD4 Mab, ATCC TIB207) at days −3, 0 and +3 as described in Example 2. This was equivalent to 100 μg of purified monoclonal antibody per injection. These CD4^+ cell-depleted mice were infected with H5.010CMVlacZ at day 0 and H5.010CBALP at day 28 (“CD4Ab mice”); and
f. […]
Mice from each group were subsequently euthanized and liver tissues evaluated for lacZ expression by X-gal histochemistry (magnification ×100) at day 3 and day 28; and for ALP expression by histochemical staining at day 31 (magnification ×100). […]

[4] = tested on: H5.010CMVlacZ virus; assay: Adenovirus-specific IgG1 and IgG2a in serum by ELISA; settings: 28 days after infection
Protocol: A. Serum samples obtained from the C57BL/6 mice (“B6”) and IL-12 treated C57BL/6 (“B6+IL12”) mice of Example 5 were tested 28 days after infection for adenovirus-specific IgG1 and IgG2a antibody isotypes.
A solid phase enzyme linked immunosorbent assay (ELISA) using purified H5.010CMVlacZ virus as antigen was performed. Immunolon-2-U microtiter plates (Fisher) were coated with 200 ng/well of viral antigen in […] of PBS for 6 hours at 37° C., washed three times in PBS, and blocked in PBS/1% BSA overnight at 4° C. The following day, 4-fold serial diluted serum samples were added to antigen-coated plates and incubated for 4 hours at 37° C. Plates were washed three times in PBS/1% BSA and incubated with goat anti-mouse IgG1-biotin or goat anti-mouse IgG2a-biotin (CALTAG Laboratories, San Francisco, Calif.) at 1:5000 dilution for 2 hours at 37° C. Plates were washed as above and Avidin-ALP (Sigma) was added to each well at 1:5000 dilution for 1 hour at 37° C. Wells were again washed as above and PNPP substrate was added. Optical densities were read on a Biorad model 450 microplate reader.

interleukin-12 [IL-12]
transgene expression after first administration of virus (ALP) ([1]; lung, intratracheal, days 3 and 28): diminished after about one month
gene transfer upon second administration of virus (lacZ) ([1]; lung, readministered day 28, read day 31): high level gene transfer to airway epithelial cells was achieved
inflammation and transgene persistence following a second administration of virus ([1]; treatment at the time of intratracheal instillation of virus): did not enhance inflammation or diminish transgene persistence
IgG in BAL [2]: without significantly impacting on formation of IgG
virus specific IgA in BAL [2]: selectively blocked secretion of antigen specific IgA
readministration of virus (gene transfer) [3]: insufficient to allow efficient gene transfer upon readministration of virus
anti-viral IgG1 in serum [4]: less anti-viral IgG1
anti-viral IgG2a in serum [4]: increased production of IgG2a
